Assays:
[1] = tested on: T1, NMDA receptors; test: Displacement of tritiated MK-801 from cerebral cortex membrane homogenate (first experiment); assay type: binding; conditions: for IC50: R0 MK-801, 2 hours at 37° C.
T1 construct: Emission ratio 1st test (%); other: R0 MK-801; [R1]; 1 · 10^−5 Mol/l; first test; Emission ratio 1st test (%); 1 · 10^−6 Mol/l; 1 · 10^−7 Mol/l; 1 · 10^−8 Mol/l; Emission ratio 1
Description: (§1) In this example, the affinity of fluoroethyl normemantine for NMDA receptors will be compared with that of glutamate (Glu) and of the product Dizocilpine (called “MK-801”), which are known NMDA receptor […] (see Neuroscience Letters, Vol. 80 (1), p. 111-114). MK-801 binds to two different sites in rat brain (Brain Res. 378, p. 133).
(§2) To that end, a material containing NMDA receptors will first be immersed in a solution containing labeled MK-801 (first experiment) or glutamate (second experiment) and then these materials are incubated in solutions containing fluoroethyl normemantine at various concentrations. Next, the radioactive emissions before and after this second incubation are compared. Lower emissions mean that fluoroethyl normemantine has a stronger affinity for NMDA receptors than that of the references and that NMDA receptors are inhibited thereby.
By means of these measurements, a correlation can be established between the concentration of the compound IE and NMDA receptor inhibition. The magnitude of the half-maximal inhibitory concentration (IC50) is deduced therefrom.
As the product to be tested (product R1), either memantine or compound I is used. The experimental protocol is as follows: a homogenate of cerebral cortex membrane (140 μg of proteins) is prepared and then incubated for 2 hours at 37° C. with 10 nM […] (tritiated MK-801) in the absence or presence of compound R1 (in buffer containing 5 mM HEPES/Tris (pH=7.4) and 0.1 mM ethyleneglycol tetraacetic acid). The comparison is made with an incubation of […] MK-801. The samples are quickly filtered under vacuum through glass-fiber filters and rinsed with 50 mM iced Tris-HCl. The filters are dried and their radioactivity is counted on a scintillation counter. The concentration of compound R1 varies, and by comparing for each concentration the difference in emission between the control filter (MK-801 alone) and the MK-801/R1 mixture filter, the ratio of inhibition of compound R1 for each concentration is obtained.

[2] = tested on: T2, NMDA receptors; test: Displacement of tritiated glutamate from cerebral cortex membrane homogenate (second experiment); assay type: binding; conditions: R0 Glu
T2 construct: Emission ratio 1st test (%); other: R0 Glu; [R1]; 1 · 10^−6 M; first test; Emission ratio 1st test (%); 1 · 10^−7 M; 1 · 10^−8 M; 1 · 10^−9 M
Description: as §1
as §2, with “thereby. […]” for “thereby.”
The experimental protocol is much the same as in the first experiment: a homogenate of cerebral cortex membrane (140 μg of protein) is prepared and then incubated for 1 hour at 4° C. with 5 nM tritiated glutamate (tritiated Glu) in the absence or presence of fluoroethyl normemantine (in buffer containing 5 mM Tris-HCl (pH=7.7) and 10 mM ethyleneglycol tetraacetic acid). […] The filters are dried and their radioactivity is counted on a scintillation counter. […]

[3] = Mouse study of distribution in the body; assay type: in vivo, mice C57/Black 6J
Procedure: (§3) All the mice are the species C57/Black 6J provided by Charles River Laboratories (France) and about 8 weeks old.
(§4) The volume administered to each mouse is defined as […] and is administered once intravenously by means of a suitable syringe and needle.
At the prescribed time the mice are sacrificed, ground material from the organs is extracted and the concentration therein is analyzed by HPLC-MS assays.

[4] = Solubility in water; assay type: physicochemical
[5] = Toxicity after a single intravenous administration in mice; assay type: in vivo, mice C57/Black 6J; conditions: male mice, single 0.125 μg/kg intravenously
Procedure: as §3, §4

[6] = Lipophilicity log(P), n-octanol / pH 7.4 buffer, HPLC; assay type: physicochemical; conditions: 50/50 by volume pH 7.4 buffer solution and octanol
Description: Lipophilicity: determined by log(P)=log([I]n-octanol/[I]water), by placing the compound (I) in a 50/50 mixture by volume of pH 7.4 buffer solution and octanol, separating the phases, then assaying by means of HPLC the level of the compound (I) present in each of said phases.

[7] = mice, 0.125 μg/kg intravenously, sacrifice at 3 minutes

## NC12CC3CC(C1)CC(CCF)(C3)C2 [Fluoroethyl normemantine]
[1]; R0 MK-801
  affinity, order of magnitude: ~10^−6 M
  displacement of MK-801: displaces MK-801
[1]
  IC50: 6.1 µM
[2]
  ability to displace Glu: unable to displace Glu
[2]; 1 hour at 4° C.
  IC50: cannot be measured
[3]; comparison sentence of b89, time not restated
  affinity for the brain (share in brain), comparison with prior art: 12%

## CC12CC3CC(C)(C1)CC(N)(C3)C2 [Memantine]
[1]; R0 MK-801
  affinity, order of magnitude: ~10^−6 M
[1]
  IC50: 1.1 µM
[1]; R0 MK-801, [R1] 1 · 10^−5 Mol/l
  Mean (emission ratio): 10.8%
[1]; R0 MK-801, [R1] 1 · 10^−6 Mol/l
  Mean (emission ratio): 52.3%
[1]; R0 MK-801, [R1] 1 · 10^−7 Mol/l
  Mean (emission ratio): 88.8%
[1]; R0 MK-801, [R1] 1 · 10^−8 Mol/l
  Mean (emission ratio): 101.4%
[1]; R0 MK-801, [R1] 1 · 10^−9 Mol/l
  Mean (emission ratio): 96.9%
[1]; R0 MK-801, [R1] 3 · 10^−6 Mol/l
  Mean (emission ratio): 29.0%
[1]; R0 MK-801, [R1] 3 · 10^−7 Mol/l
  Mean (emission ratio): 73.1%
[1]; R0 MK-801, [R1] 3 · 10^−8 Mol/l
  Mean (emission ratio): 97.5%
[1]; R0 MK-801, [R1] 3 · 10^−9 Mol/l
  Mean (emission ratio): 103.3%

## NC12CC3CC(C1)CC(CCF)(C3)C2 [^18F-fluoroethyl normemantine]
[4]
  solubility: > 100 mM
[5]
  toxicity (conclusion): not toxic at the doses tested
[3]; [7]
  Brain: % of the injected dose: 12 % of the injected dose
  Kidneys: share of injected dose: 18%
  Liver: share of injected dose: 20%

## NC12CC3CC(C1)CC(CCF)(C3)C2 [compound (I)]
[6]
  log(P): 3.1 (±0.5)
